The record followed here is publication PMC2778273 (Biochimica et biophysica acta, 2008).

In brackets after ≈: the same amount, converted by molar mass.

This assay deals with Clitocybe nebularis lectin (CNL) (Clitocybe nebularis, UniProt B2ZRS9). As to the kind of experiment: hemagglutination inhibition assay, human group A erythrocytes. Conditions: CNL 18.6 µg/ml; 20 mM Tris/HCl, 130 mM NaCl, pH 7.5; room temperature.
Chain of Clitocybe nebularis lectin (CNL) (B2ZRS9 2-149): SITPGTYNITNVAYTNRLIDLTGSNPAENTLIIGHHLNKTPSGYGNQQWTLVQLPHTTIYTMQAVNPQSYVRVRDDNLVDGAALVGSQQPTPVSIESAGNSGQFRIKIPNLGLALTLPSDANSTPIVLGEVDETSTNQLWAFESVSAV

For `OC[C@H]1O[C@@H](O[C@H]2[C@H](O)[C@@H](O)C(O)O[C@@H]2CO)[C@H](O)[C@@H](O)[C@H]1O` (stereo partly shown) [lactose], the minimum inhibitory concentration is given as 4.65 mM (≈ 1590 µg/mL).
